The text below walks through data of ChEMBL document CHEMBL4052642, “4-Methyl-6,7-dihydro-4H-triazolo[4,5-c]pyridine-Based P2X7 Receptor Antagonists: Optimization of Pharmacokinetic Properties Leading to the Identification of a Clinical Candidate” (J Med Chem, 2017).

What is called solubility is how much of the substance goes into solution per volume. Broadly, the bioavailability is dose-corrected exposure relative to a reference, in per cent. In general, half-life refers to the time in which the quantity being followed falls by half. What is called ED50 is the dose at which the effect has come halfway, by size or by number of responders. Usually IC50 stands for the concentration at which inhibition is half-maximal.

≈ marks a conversion by molar mass, not a printed value.

Series [1] is described as follows: Solubility of compound in phosphate buffer at pH 7 after 3 days. The format is physicochemical.
A short description of series [2]: Protein binding in rat plasma at 1 uM after 6 hrs by equilibrium dialysis method. Particulars: read-out: PPB (converted). The format is ADME, cell-free.
Series [3] can be described thus: Drug metabolism in cynomolgus monkey liver microsomes assessed as oxidation of methyl group on pyrimidine at 1 uM after 5 to 60 mins by LC-MS/MS analysis. The format is ADME, Macaca fascicularis, microsome. A general note: Liver microsomes are vesicles of endoplasmic reticulum, rich in cytochrome P450 enzymes.
Series [4] is described as follows: Clearance in Sprague-Dawley rat at 1 mg/kg, iv or 5 mg/kg, po by LC-MS/MS analysis. The format is ADME, organism-based. Particulars: in vivo.
Series [5] is described as follows: Oral bioavailability in Sprague-Dawley rat at 5 mg/kg by LC-MS/MS analysis. The format is ADME, organism-based. Particulars: in vivo.
In series [6] the test system is Liver. In words: Drug metabolism in rat liver microsomes assessed as oxidation of methyl group on pyrimidine at 1 uM after 5 to 60 mins by LC-MS/MS analysis. The format is ADME, microsome.
The test system of series [7] is Rattus norvegicus. Briefly: Toxicity in rat assessed as increase in liver weight at 50 to 500 mg/kg administered via oral gavage on day 1 and day 4. Conditions: in vivo. The format is organism-based.
The nature of series [8]: Clearance in beagle dog at 0.5 mg/kg, iv or 2.5 mg/kg, po by LC-MS/MS analysis. The format is ADME, organism-based, Canis lupus familiaris. Conditions: in vivo.
Series [9] has as its system Rattus norvegicus. In words: Toxicity in rat assessed as autoinduction at 50 to 500 mg/kg administered via oral gavage on day 1 and day 5. Conditions: in vivo. The format is organism-based.
Series [10] has as its system Liver. Briefly: Drug metabolism in dog liver microsomes assessed as oxidation of methyl group on pyrimidine at 1 uM after 5 to 60 mins by LC-MS/MS analysis. The format is ADME, Canis lupus familiaris, microsome.
Series [11] can be described thus: Oral bioavailability in beagle dog at 2.5 mg/kg by LC-MS/MS analysis. The format is ADME, organism-based, Canis lupus familiaris. Conditions: beagle, in vivo.
Series [12] is described as follows: Protein binding in human plasma at 1 uM after 6 hrs by equilibrium dialysis method. The format is ADME, cell-free. Conditions: read-out: PPB (converted).
The target of a further series is Cytochrome P450 2C19 (Homo sapiens, UniProt P33261). In words: Drug metabolism assessed as recombinant human CYP2C19-mediated metabolite formation. The format is ADME. Conditions: recombinant enzyme.
Chain of Cytochrome P450 2C19 (P33261 whole entry): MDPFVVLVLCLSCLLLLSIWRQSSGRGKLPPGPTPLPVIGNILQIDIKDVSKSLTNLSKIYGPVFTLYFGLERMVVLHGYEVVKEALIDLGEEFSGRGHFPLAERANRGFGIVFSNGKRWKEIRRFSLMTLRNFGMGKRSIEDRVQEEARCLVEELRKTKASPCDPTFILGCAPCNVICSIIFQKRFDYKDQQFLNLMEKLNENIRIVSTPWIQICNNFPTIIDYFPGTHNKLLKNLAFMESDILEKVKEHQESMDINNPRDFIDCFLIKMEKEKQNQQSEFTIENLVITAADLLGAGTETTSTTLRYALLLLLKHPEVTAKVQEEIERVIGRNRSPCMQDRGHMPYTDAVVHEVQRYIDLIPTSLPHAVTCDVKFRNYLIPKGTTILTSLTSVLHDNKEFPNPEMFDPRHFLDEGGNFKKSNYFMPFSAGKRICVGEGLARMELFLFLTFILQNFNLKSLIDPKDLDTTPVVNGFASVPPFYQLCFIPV
Series [13] can be described thus: Half life in beagle dog at 0.5 mg/kg, iv by LC-MS/MS analysis. The format is ADME, organism-based, Canis lupus familiaris. Particulars: in vivo.
Series [14] concerns Liver. Briefly: Drug metabolism in mouse liver microsomes assessed as oxidation of methyl group on pyrimidine at 1 uM after 5 to 60 mins by LC-MS/MS analysis. The format is ADME, microsome.
Series [15] has as its system Liver. Briefly: Drug metabolism in human liver microsomes assessed as oxidation of methyl group on pyrimidine at 1 uM after 5 to 60 mins by LC-MS/MS analysis. The format is ADME, microsome.
For series [16], the system named is Rattus norvegicus. Briefly: Ex vivo receptor occupancy at P2X7 in po dosed Sprague-Dawley rat brain after 60 mins by autoradiography. The format is functional. Particulars: 1 h.
Series [17] in a line: Protein binding in mouse plasma at 1 uM after 6 hrs by equilibrium dialysis method. The format is ADME, cell-free. Particulars: read-out: PPB (converted).
The nature of series [18]: Volume of distribution at steady state in Sprague-Dawley rat at 1 mg/kg, iv or 5 mg/kg, po by LC-MS/MS analysis. The format is ADME, organism-based. Conditions: in vivo, read-out: Vdss.
Series [19] in a line: Half life in Sprague-Dawley rat at 1 mg/kg, iv by LC-MS/MS analysis. Particulars: in vivo. The format is ADME, organism-based.
The nature of series [20]: Volume of distribution at steady state in beagle dog at 0.5 mg/kg, iv or 2.5 mg/kg, po by LC-MS/MS analysis. Conditions: in vivo, read-out: Vdss. The format is ADME, organism-based, Canis lupus familiaris.
The nature of series [21]: Protein binding in rat brain at 5 uM after 5 hrs by equilibrium dialysis method. The format is ADME, tissue-based. Conditions: read-out: PB (converted). For orientation: Equilibrium dialysis compares concentrations on both sides of a semipermeable membrane.
For series [22], the system named is Rattus norvegicus. Briefly: Ex vivo receptor occupancy at P2X7 in po dosed Sprague-Dawley rat brain assessed as plasma concentration required to achieve EC50 after 60 mins by autoradiography. The format is functional, organism-based.
Series [23] can be described thus: Solubility of compound in phosphate buffer at pH 2 after 3 days. The format is physicochemical.
Another series concerns the target P2X purinoceptor 7 (Homo sapiens, UniProt Q99572). Briefly: Antagonist activity at human P2X7.

Chain of P2X purinoceptor 7 (Q99572 whole entry): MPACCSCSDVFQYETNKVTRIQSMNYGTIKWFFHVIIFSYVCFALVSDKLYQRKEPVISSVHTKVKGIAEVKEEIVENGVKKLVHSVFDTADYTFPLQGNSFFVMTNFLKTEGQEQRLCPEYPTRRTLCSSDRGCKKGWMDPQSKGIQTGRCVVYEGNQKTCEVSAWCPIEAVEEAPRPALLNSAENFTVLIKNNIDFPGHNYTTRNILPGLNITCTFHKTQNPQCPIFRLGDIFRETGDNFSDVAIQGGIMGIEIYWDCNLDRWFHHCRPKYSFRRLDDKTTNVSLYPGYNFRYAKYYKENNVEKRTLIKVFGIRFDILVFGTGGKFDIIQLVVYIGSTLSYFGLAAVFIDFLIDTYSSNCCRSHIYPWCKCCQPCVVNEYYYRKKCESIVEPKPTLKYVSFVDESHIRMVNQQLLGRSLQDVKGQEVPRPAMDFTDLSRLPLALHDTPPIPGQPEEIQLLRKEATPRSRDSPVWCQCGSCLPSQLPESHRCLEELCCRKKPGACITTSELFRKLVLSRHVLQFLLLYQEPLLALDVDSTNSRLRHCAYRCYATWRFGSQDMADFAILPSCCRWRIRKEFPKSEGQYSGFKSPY

Consider `Cc1ccnc(-n2nnc3c2CCN(C(=O)c2cccc(C(F)(F)F)c2Cl)[C@@H]3C)n1`, for which the solubility at 72 h came out at 283 µM (≈ 124 µg/mL) in series [1] and 328 µM (≈ 143 µg/mL) in series [23]. Moreover, the fraction unbound at 6 h, 1 µM is 0.095 in series [2], 0.085 in [12] and 0.095 in series [17]. In addition, the Drug metabolism entry (in series [3]; with Liver [6]; in the series with Liver [10]; at Cytochrome P450 2C19; in the series on Liver [14]; in the series with Liver [15]) was “Metabolite_Detected” throughout. Further, the clearance in series [4] came out at 64 mL/min/kg; in [8], 21 mL/min/kg. Further, the bioavailability in series [5] was determined as 3%; in [11] it was 86%. Also, the Activity result in the series on Rattus norvegicus [7] and in the series on Rattus norvegicus [9] was “Toxic” throughout. Besides, the values for the half-life in series [13] and in series [19] were 42 min and 48 min, respectively. This compound also had an ED50 in the series with Rattus norvegicus [16] of 8.3 mg/kg. In addition, the Vd came to 1.6 L/kg in series [18] and 1.8 L/kg in series [20]. Moreover, the fraction unbound at 5 h, 5 µM in [21] is 0.041. Further, the Cp in the series with Rattus norvegicus [22] was 51 ng/mL.

Turning to `O=C(NCC12CC3CC(CC(C3)C1)C2)c1cc(CCCNCCCO)ccc1Cl` [AZD9056], at P2X purinoceptor 7, the IC50 was 10 to 13 nM.
